Data on 20 compounds can be found in patent publication US10450316B2, “Certain protein kinase inhibitor” (Chongqing Fochon Pharmaceutical Co., Ltd., priority 2015, dated 2019).

This assay concerns BE(2)-C cell. In words: Cell proliferation assay (MTS) in BE(2)-C cells. In kind it is cell-based. As to conditions: Homo sapiens, inhibition of BE(2)-C cell proliferation, 48 h. How it is done:
MTS testing kit was purchased from Promega. The DMEM, Fetal bovine serum and Penicillin-Streptomycin were purchased from Gibco. Dimethyl sulfoxide (DMSO) was purchased from Sigma.
To investigate whether a compound is able to inhibit the activity of CDK4/6 in cells, mechanism-based assays using BE(2)-C cell (ATCC® number:CRL-2268) were developed. In the assay, inhibition of CDK4/6 was detected by the inhibition of BE(2)-C cell cells proliferation. BE(2)-C cell cells were cultured in culture flasks to 40-80% confluence in DMEM plus 10% fetal bovine serum. Cells were collected and plated onto 96-well plates at cell density of 3000 cells/well. Plates were incubated overnight at 37° C., with 5% CO2 to adhere. Compounds were added to the plates, the final compound concentrations were 10000, 3333, 1111, […], 123.5, 41.2, 13.7, 4.6 and 1.5 nM. Place plates at 37° C., with 5% CO2 for 48 h. After removing the medium, 20 μl MTS/100 μl medium mixture solution were added to each well and incubate the plates for exactly 2 hours. The reaction was terminated by adding 25 μl 10% SDS per well. Measure absorbance at 490 nm and 650 nm (reference wavelength). IC50 was calculated using GraphPad Prism 5.0.
Select compounds prepared as described above were assayed according to the biological procedures described herein. “++++” stands for IC50 value below about 10 nM. “+++” stands for IC50 value between greater than about 10 nM to about 100 nM. “++” stands for IC50 value between greater than about 100 nM to about […]. “+” stands for IC50 value greater than 1 μM.
`Fc1cnc(Nc2ccc(CN3CC4(CCNCC4)C3)cn2)nc1-c1cc(F)c2nc3n(c2c1)[C@H](C(F)F)CC3` [Example 42, (S)-N-(5-((2,7-diazaspiro[3.5]nonan-2-yl)methyl)pyridin-2-yl)-4-(1-(difluoromethyl)-5-fluoro-2,3-dihydro-1H-benzo[d]pyrrolo[1,2-a]imidazol-7-yl)-5-fluoropyrimidin-2-amine]: the 50% inhibitory concentration (IC50) (as a rule, the point on the concentration scale where inhibition reaches its midpoint) is over 100 nM. To `CN1CCC2(CC1)CN(Cc1ccc(Nc3ncc(F)c(-c4cc(F)c5nc6n(c5c4)[C@H](C(F)F)CC6)n3)nc1)C2` [Example 43, (S)-4-(1-(difluoromethyl)-5-fluoro-2,3-dihydro-1H-benzo[d]pyrrolo[1,2-a]imidazol-7-yl)-5-fluoro-N-(5-((7-methyl-2,7-diazaspiro[3.5]nonan-2-yl)methyl)pyridin-2-yl)pyrimidin-2-amine] belongs 10 to 100 nM; to `CCN1CCC2(CC1)CN(Cc1ccc(Nc3ncc(F)c(-c4cc(F)c5nc6n(c5c4)[C@H](C(F)F)CC6)n3)nc1)C2` [Example 44, (S)-4-(1-(difluoromethyl)-5-fluoro-2,3-dihydro-1H-benzo[d]pyrrolo[1,2-a]imidazol-7-yl)-N-(5-((7-ethyl-2,7-diazaspiro[3.5]nonan-2-yl)methyl)pyridin-2-yl)-5-fluoropyrimidin-2-amine], 10 to 100 nM; to `Fc1cnc(Nc2ccc(CN3CC4(CNC4)C3)cn2)nc1-c1cc(F)c2nc3n(c2c1)[C@H](C(F)F)CC3` [Example 45, (S)-N-(5-((2,6-diazaspiro[3.3]heptan-2-yl)methyl)pyridin-2-yl)-4-(1-(difluoromethyl)-5-fluoro-2,3-dihydro-1H-benzo[d]pyrrolo[1,2-a]imidazol-7-yl)-5-fluoropyrimidin-2-amine], over 1000 nM. Under `CN1CC2(C1)CN(Cc1ccc(Nc3ncc(F)c(-c4cc(F)c5nc6n(c5c4)[C@H](C(F)F)CC6)n3)nc1)C2` [Example 46, (S)-4-(1-(difluoromethyl)-5-fluoro-2,3-dihydro-1H-benzo[d]pyrrolo[1,2-a]imidazol-7-yl)-5-fluoro-N-(5-((6-methyl-2,6-diazaspiro[3.3]heptan-2-yl)methyl)pyridin-2-yl)pyrimidin-2-amine] stands 10 to 100 nM. To `CCN1CC2(C1)CN(Cc1ccc(Nc3ncc(F)c(-c4cc(F)c5nc6n(c5c4)[C@H](C(F)F)CC6)n3)nc1)C2` [Example 47, (S)-4-(1-(difluoromethyl)-5-fluoro-2,3-dihydro-1H-benzo[d]pyrrolo[1,2-a]imidazol-7-yl)-N-(5-((6-ethyl-2,6-diazaspiro[3.3]heptan-2-yl)methyl)pyridin-2-yl)-5-fluoropyrimidin-2-amine] belongs 10 to 100 nM; to `Fc1cnc(Nc2ccc(CN3CC4CNCC4C3)cn2)nc1-c1cc(F)c2nc3n(c2c1)[C@H](C(F)F)CC3` (stereo partly drawn) [Example 48, 4-((S)-1-(difluoromethyl)-5-fluoro-2,3-dihydro-1H-benzo[d]pyrrolo[1,2-a]imidazol-7-yl)-5-fluoro-N-(5-((hexahydropyrrolo[3,4-c]pyrrol-2(1H)-yl)methyl)pyridin-2-yl)pyrimidin-2-amine], over 100 nM; to `CN1CC2CN(Cc3ccc(Nc4ncc(F)c(-c5cc(F)c6nc7n(c6c5)[C@H](C(F)F)CC7)n4)nc3)CC2C1` (stereo partly drawn) [Example 49, 4-((S)-1-(difluoromethyl)-5-fluoro-2,3-dihydro-1H-benzo[d]pyrrolo[1,2-a]imidazol-7-yl)-5-fluoro-N-(5-((5-methylhexahydropyrrolo[3,4-c]pyrrol-2(1H)-yl)methyl)pyridin-2-yl)pyrimidin-2-amine], 10 to 100 nM. Regarding `CCN1CC2CN(Cc3ccc(Nc4ncc(F)c(-c5cc(F)c6nc7n(c6c5)[C@H](C(F)F)CC7)n4)nc3)CC2C1` (stereo partly drawn) [Example 50, 4-((S)-1-(difluoromethyl)-5-fluoro-2,3-dihydro-1H-benzo[d]pyrrolo[1,2-a]imidazol-7-yl)-N-(5-((5-ethylhexahydropyrrolo[3,4-c]pyrrol-2(1H)-yl)methyl)pyridin-2-yl)-5-fluoropyrimidin-2-amine], the IC50 fell in the range of 10 to 100 nM. Compound `Fc1cnc(Nc2ccc(CN3CCC4(CCNCC4)CC3)cn2)nc1-c1cc(F)c2nc3n(c2c1)[C@H](C(F)F)CC3` [Example 51, (S)-N-(5-((3,9-diazaspiro[5.5]undecan-3-yl)methyl)pyridin-2-yl)-4-(1-(difluoromethyl)-5-fluoro-2,3-dihydro-1H-benzo[d]pyrrolo[1,2-a]imidazol-7-yl)-5-fluoropyrimidin-2-amine] came in with an IC50 of over 100 nM. Under `CN1CCC2(CC1)CCN(Cc1ccc(Nc3ncc(F)c(-c4cc(F)c5nc6n(c5c4)[C@H](C(F)F)CC6)n3)nc1)CC2` [Example 52, (S)-4-(1-(difluoromethyl)-5-fluoro-2,3-dihydro-1H-benzo[d]pyrrolo[1,2-a]imidazol-7-yl)-5-fluoro-N-(5-((9-methyl-3,9-diazaspiro[5.5]undecan-3-yl)methyl)pyridin-2-yl)pyrimidin-2-amine] stands over 100 nM. To `CCN1CCC2(CC1)CCN(Cc1ccc(Nc3ncc(F)c(-c4cc(F)c5nc6n(c5c4)[C@H](C(F)F)CC6)n3)nc1)CC2` [Example 53, (S)-4-(1-(difluoromethyl)-5-fluoro-2,3-dihydro-1H-benzo[d]pyrrolo[1,2-a]imidazol-7-yl)-N-(5-((9-ethyl-3,9-diazaspiro[5.5]undecan-3-yl)methyl)pyridin-2-yl)-5-fluoropyrimidin-2-amine] belongs over 100 nM; to `Fc1cnc(Nc2ccc(CN3C4CCC3CNC4)cn2)nc1-c1cc(F)c2nc3n(c2c1)[C@H](C(F)F)CC3` [Example 54, N-(5-((3,8-diazabicyclo[3.2.1]octan-8-yl)methyl)pyridin-2-yl)-4-((S)-1-(difluoromethyl)-5-fluoro-2,3-dihydro-1H-benzo[d]pyrrolo[1,2-a]imidazol-7-yl)-5-fluoropyrimidin-2-amine], over 100 nM; to `CN1CC2CCC(C1)N2Cc1ccc(Nc2ncc(F)c(-c3cc(F)c4nc5n(c4c3)[C@H](C(F)F)CC5)n2)nc1` [Example 55, 4-((S)-1-(difluoromethyl)-5-fluoro-2,3-dihydro-1H-benzo[d]pyrrolo[1,2-a]imidazol-7-yl)-5-fluoro-N-(5-((3-methyl-3,8-diazabicyclo[3.2.1]octan-8-yl)methyl)pyridin-2-yl)pyrimidin-2-amine], 10 to 100 nM.

`CCN1CC2CCC(C1)N2Cc1ccc(Nc2ncc(F)c(-c3cc(F)c4nc5n(c4c3)[C@H](C(F)F)CC5)n2)nc1` [Example 56, 4-((S)-1-(difluoromethyl)-5-fluoro-2,3-dihydro-1H-benzo[d]pyrrolo[1,2-a]imidazol-7-yl)-N-(5-((3-ethyl-3,8-diazabicyclo[3.2.1]octan-8-yl)methyl)pyridin-2-yl)-5-fluoropyrimidin-2-amine] registered an IC50 of 10 to 100 nM. On to `Fc1cnc(Nc2ccc(CN3CC4CCC(C3)N4)cn2)nc1-c1cc(F)c2nc3n(c2c1)[C@H](C(F)F)CC3` [Example 57, N-(5-((3,8-diazabicyclo[3.2.1]octan-3-yl)methyl)pyridin-2-yl)-4-((S)-1-(difluoromethyl)-5-fluoro-2,3-dihydro-1H-benzo[d]pyrrolo[1,2-a]imidazol-7-yl)-5-fluoropyrimidin-2-amine], for which the half-inhibitory concentration (IC50) is over 100 nM.

`CN1C2CCC1CN(Cc1ccc(Nc3ncc(F)c(-c4cc(F)c5nc6n(c5c4)[C@H](C(F)F)CC6)n3)nc1)C2` [Example 58, 4-((S)-1-(difluoromethyl)-5-fluoro-2,3-dihydro-1H-benzo[d]pyrrolo[1,2-a]imidazol-7-yl)-5-fluoro-N-(5-((8-methyl-3,8-diazabicyclo[3.2.1]octan-3-yl)methyl)pyridin-2-yl)pyrimidin-2-amine] yielded an IC50 of 10 to 100 nM.

The compound `CCN1C2CCC1CN(Cc1ccc(Nc3ncc(F)c(-c4cc(F)c5nc6n(c5c4)[C@H](C(F)F)CC6)n3)nc1)C2` [Example 59, 4-((S)-1-(difluoromethyl)-5-fluoro-2,3-dihydro-1H-benzo[d]pyrrolo[1,2-a]imidazol-7-yl)-N-(5-((8-ethyl-3,8-diazabicyclo[3.2.1]octan-3-yl)methyl)pyridin-2-yl)-5-fluoropyrimidin-2-amine] had an IC50 of 10 to 100 nM.

`Fc1cnc(Nc2ccc(CN3CCN4CCC[C@@H]4C3)cn2)nc1-c1cc(F)c2nc3n(c2c1)[C@H](C(F)(F)F)CC3` [Example 60, 5-fluoro-4-((S)-5-fluoro-1-(trifluoromethyl)-2,3-dihydro-1H-benzo[d]pyrrolo[1,2-a]imidazol-7-yl)-N-(5-(((R)-hexahydropyrrolo[1,2-a]pyrazin-2(1H)-yl)methyl)pyridin-2-yl)pyrimidin-2-amine] returned an IC50 of 10 to 100 nM. Under `Fc1cnc(Nc2ccc(CN3CC4(CCNCC4)C3)cn2)nc1-c1cc(F)c2nc3n(c2c1)[C@H](C(F)(F)F)CC3` [Example 61, (S)-N-(5-((2,7-diazaspiro[3.5]nonan-2-yl)methyl)pyridin-2-yl)-5-fluoro-4-(5-fluoro-1-(trifluoro-methyl)-2,3-dihydro-1H-benzo[d]pyrrolo[1,2-a]imidazol-7-yl)pyrimidin-2-amine] stands over 100 nM.
